Measured values reported in US7745571B2, “Peptide inhibitors of IASPP” (Ludwig Institute for Cancer Research, priority 2002, dated 2010).

Tests used:
[1] = system: p53 transactivation in U2SO; experiment: p53 transactivation in tumour cell line after UV damage of DNA in presence of peptide (FIG. 5); assay type: cell-based, human; details: U2SO cells after UV damage of DNA
Text: FIG. 5 illustrates the stimulation of p53 transactivation in a human tumour cell line U2SO after UV damage of DNA in the presence of peptide DGPEETD (SEQ ID NO: 2);

Bax promoter = experiment: Stimulation of the Bax promoter by p53 after incubation with peptides (FIG. 4); assay type: cell-based; details: after incubation with peptide
Description: FIG. 4 illustrates the stimulation of the Bax promoter by p53 after incubation with various peptides, in particular DGPEETD (SEQ ID NO: 2);
For transcriptional assay, 5×10^5 Saos-2 cells were plated 24 hr prior to transfection in 6 cm dishes. Various combinations of plasmid DNA were transfected using the following amounts. All transfection assays contain 1 μg of reporter plasmid. 50 ng of wild type human p53, 100 ng of plasmid expressing C. elegans p53, 4 μg of ASPP2, or 8 μg of ASPP1, 5 μg of human iASPP or 7.5 μg of Ce-iASPP were used as indicated. After transfection, the cells were lysed in Reporter Lysis Buffer (Promega, Wis., USA) 16-24 hr post-wash and assayed using the Luciferase Assay kit (Promega, Wis., USA). The fold activation of a particular reporter was determined by the activity of the transfected plasmid above the activity of vector alone. The fold increase of p53 transactivation activity by ASPP was obtained by the activity p53 in combination with ASPP divided by the activity of p53 alone on the promoters used in each assay.

DGPEETD (p53 inhibitor peptide)
stimulation of p53 transactivation [1]: stimulation | stimulation of the Bax promoter by p53 (Bax promoter): stimulation
